Assay results from paper PMC11672294, “The Antipsychotic Drug Aripiprazole Suppresses Colorectal Cancer by Targeting LAMP2a to Induce RNH1/miR‐99a/mTOR‐Mediated Autophagy and Apoptosis” (Advanced Science, 2024).
Where a name gives a salt, the structure may show the parent alone.

test system: HT29; conditions: 72 h, relative to DMSO, 10 µM, Relative cell viability (%)
From the text: To investigate the key signaling pathways and biological processes involved in CRC progression, we analyzed the National Center for Biotechnology Information Gene Expression Omnibus (GEO) dataset GSE115313, which included 42 CRC and paired normal tissues (Figure 1A). […] Next, we performed an Annexin V‐fluorescein isothiocyanate (FITC)/propidium iodide (PI) staining assay to determine the effect of aripiprazole on apoptosis in CRC cells. […] A) Principal component analysis of GEO dataset (GSE115313), which includes 42 CRC and paired normal tissues. B) Gene Ontology pathway analysis of the DEPs between CRC and paired normal tissues. […] D) Schematic diagram for identifying anticancer drugs amongst an US Food and Drug Administration‐approved small‐molecule library (616 compounds) using WST‐1 assay. E) HT29 cells were treated with the 616 drugs (10 µM) individually or with dimethyl sulfoxide for 72 h, followed by WST‐1 assay. […] J) Mice bearing HT29‐derived tumor xenografts were intragastrically administered with aripiprazole (10 or 20 mg kg^−1) once every 2 d, n = 6 mice/group. […] Bars, SD; ^* p < 0.05; ^** p < 0.01; ^*** p < 0.001; ns, no significant difference. The WST‐1 Cell Proliferation and Cytotoxicity Assay Kit (Beyotime Biotechnology, Shanghai, China) was used to measure cell viability, as described previously.^[ [10] ^] CRC cells were seeded into 96‐well plates and treated with different drug concentrations. Following that, WST‐1 was added to the plate and incubated with the cells for 2 h, at 37 °C. Absorbance at the wavelength of 450 nm was measured using an automated microplate spectrophotometer (BioTek Instruments, Winooski, VT, USA).

Compound | Relative cell viability (%) [%]
CC/C(=C(\c1ccccc1)c1ccc(OCCN(C)C)cc1)c1ccccc1 [Tamoxifen] | 18.22
COc1ccc2nc([S@@+]([O-])Cc3ncc(C)c(OC)c3C)[nH]c2c1 [Esomeprazole Magnesium] | 80.51
CC/C(=C(\c1ccccc1)c1ccc(OCCN(C)C)cc1)c1ccccc1 [Tamoxifen Citrate] | 47.42
COc1ccccc1Oc1c(NS(=O)(=O)c2ccc(C(C)(C)C)cc2)nc(-c2ncccn2)nc1OCCO [Bosentan] | 63.94

same assay, conditions: 72 h, relative to DMSO; 10 µM

Compound | Relative cell viability (%) [%]
CC(CCc1ccccc1)NCC(O)c1ccc(O)c(C(N)=O)c1 (stereo not drawn) [Labetalol HCl] | 55.76
Cc1cc(C)c2c(c1)[C@@H](N(Cc1cc(C(F)(F)F)cc(C(F)(F)F)c1)c1nnn(C)n1)CCCN2C[C@H]1CC[C@H](C(=O)O)CC1 [Evacetrapib (LY2484595)] | 40.29
OC[C@H]1OC(O)[C@H](O)[C@@H](O)[C@@H]1O (stereo partly drawn) [Dextrose] | 126.7
CC1CNc2c(cccc2S(=O)(=O)N[C@@H](CCCNC(=N)N)C(=O)N2CC[C@@H](C)C[C@@H]2C(=O)O)C1 (stereo partly drawn) [Argatroban] | 123.2
Clc1ccc(C(c2ccccc2Cl)C(Cl)Cl)cc1 (stereo not drawn) [Mitotane] | 63.98
O=C1CC2(CCCC2)CC(=O)N1CCCCN1CCN(c2ncccn2)CC1 [Buspirone HCl] | 73.94
CC(C(=O)O)c1ccc(C(=O)c2cccs2)cc1 (stereo not drawn) [Suprofen] | 93.22
CCN(CC)CCOC(=O)C(c1ccccc1)c1ccccc1 [Adiphenine HCl] | 119.6
NC[C@H](O)c1ccc(O)c(O)c1 [Noradrenaline bitartrate monohydrate] | 75.24
CO[C@H]1O[C@@H]2O[C@@]3(C)CC[C@H]4[C@H](C)CC[C@@H]([C@H]1C)[C@@]24OO3 [Artemether] | 126.1
CNC(=O)c1cc(Oc2ccc(NC(=O)Nc3ccc(Cl)c(C(F)(F)F)c3)cc2)ccn1 [Sorafenib] | 21.37
C[C@H](CCC(=O)O)[C@H]1CC[C@H]2[C@@H]3[C@H](O)C[C@@H]4C[C@H](O)CC[C@]4(C)[C@H]3CC[C@]12C [Chenodeoxycholic Acid] | 60.17
CCOc1ccc2nc3cc(N)ccc3c(N)c2c1 [Ethacridine lactate monohydrate] | 39.39
Nc1nc(F)nc2c1ncn2[C@@H]1O[C@H](COP(=O)(O)O)[C@@H](O)[C@@H]1O [Fludarabine Phosphate] | 52.49
CCOC(=O)c1cncn1[C@H](C)c1ccccc1 [Etomidate] | 60.28
C[C@@H](O[C@H]1OCCN(Cc2nc(O)n(P(=O)(O)O)n2)[C@H]1c1ccc(F)cc1)c1cc(C(F)(F)F)cc(C(F)(F)F)c1 [Fosaprepitant dimeglumine salt] | 111.6
CCOc1nc2cccc(C(=O)OC(C)OC(=O)OC3CCCCC3)c2n1Cc1ccc(-c2ccccc2-c2nnn[nH]2)cc1 (stereo not drawn) [Candesartan Cilexetil] | 195.6
O=C1NC(=O)[C@@H](c2cn3c4c(cccc24)CCC3)[C@@H]1c1c[nH]c2ccccc12 [Tivantinib (ARQ 197)] | 27.18
CC(C)n1c(/C=C/[C@@H](O)C[C@@H](O)CC(=O)O)c(-c2ccc(F)cc2)c2ccccc21 (racemic) [Fluvastatin Sodium] | 103.4
CN(CCOc1ccc(CC2SC(=O)NC2=O)cc1)c1ccccn1 (stereo not drawn) [Rosiglitazone HCl] | 114.3

Compound | Relative cell viability (%) [%]
CCCCNC(=O)NS(=O)(=O)c1ccc(C)cc1 [Tolbutamide] | 106.1
O=c1c(-c2ccc(O)cc2)coc2cc(O)cc(O)c12 [Genistein] | 102.3
O=c1oc2cc(O)ccc2s1 [Tioxolone] | 114.6
CN1CCN2c3ccccc3Cc3ccccc3C2C1 (stereo not drawn) [Mianserin HCl] | 57.17
Cc1cccc([C@H](C)c2cnc[nH]2)c1C [Dexmedetomidine HCl (Precedex)] | 113.8
CCN1CCC[C@H]1CNC(=O)c1cc(S(N)(=O)=O)ccc1OC [Levosulpiride] | 114.3
O=C(O)/C=C/c1ccc(Cn2ccnc2)cc1 [Ozagrel HCl] | 127.9
COc1ccc(Cl)c(Nc2nc3ccccc3nc2NS(=O)(=O)c2cccc(NC(=O)C(C)(C)N)c2)c1 [Pilaralisib (XL147)] | 48.29
N=C(N)NC(=O)Cc1c(Cl)cccc1Cl [Guanfacine Hydrochloride] | 129.1
CC(C)[C@H]1C(=O)N[C@@H](CCCN=C(N)N)C(=O)NCC(=O)N[C@@H](CC(=O)O)C(=O)N[C@H](Cc2ccccc2)C(=O)N1C [Cilengitide] | 61.11
NNC(=O)c1ccncc1 [Isoniazid] | 140.3
CN1CCN2c3ncccc3Cc3ccccc3C2C1 (stereo not drawn) [Mirtazapine] | 177.9
Nc1nc2c(ncn2COCCO)c(=O)[nH]1 [Aciclovir] | 89.41
CCN1CCCC1CNC(=O)c1cc(S(=O)(=O)CC)c(N)cc1OC (stereo not drawn) [Amisulpride] | 77.41
CN1CCC(=C2c3ccccc3C=Cc3ccccc32)CC1 [Cyproheptadine HCl] | 44.58
COc1ccc2[nH]c([S+]([O-])Cc3ncc(C)c(OC)c3C)nc2c1 (stereo not drawn) [Omeprazole] | 88.32
Cc1ccccc1C(=O)Nc1ccc(C(=O)N2CCCC(O)c3cc(Cl)ccc32)c(C)c1 (stereo not drawn) [Tolvaptan] | 54.85
C[C@H]1C[C@@H]2[C@H]([C@@H](O)C[C@@]3(C)[C@H]2CC[C@]3(O)C(=O)CO)[C@@]2(C)C=CC(=O)C=C12 [Methylprednisolone] | 42.37
CCCCC(=O)N(Cc1ccc(-c2ccccc2-c2nnn[nH]2)cc1)[C@H](C(=O)O)C(C)C [Valsartan] | 83.05
CCOc1nc2cccc(C(=O)OCc3oc(=O)oc3C)c2n1Cc1ccc(-c2ccccc2-c2noc(=O)[nH]2)cc1 [Azilsartan Medoxomil] | 116

Compound | Relative cell viability (%) [%]
CCOC(=O)[C@H](CCc1ccccc1)N[C@@H](C)C(=O)N1C(=O)N(C)C[C@H]1C(=O)O [Imidapril HCl] | 128.5
CCc1ccc(CCOc2ccc(CC3SC(=O)NC3=O)cc2)nc1 (stereo not drawn) [Pioglitazone HCl] | 158.4
CC(C)Oc1ccc(-c2nc(-c3cccc4c3CC[C@@H]4NCCO)no2)cc1C#N [Ozanimod (RPC1063)] | 47.01
COc1ccccc1OCC(O)CN1CCN(CC(=O)Nc2c(C)cccc2C)CC1 (stereo not drawn) [Ranolazine] | 67.8
O=C(NC[C@H]1CN(c2ccc(N3CCOCC3=O)cc2)C(=O)O1)c1ccc(Cl)s1 [Rivaroxaban] | 107.3
CC1=NN(c2ccccc2)C(=O)C1 [Edaravone] | 97.66
CCCCCCNC(=O)n1cc(F)c(=O)[nH]c1=O [Carmofur] | 24.45
O=C(Nc1c(Cl)cncc1Cl)c1ccc(OC(F)F)c(OCC2CC2)c1 [Roflumilast] | 121.4
C[C@]12C=CC(=O)C=C1CC[C@@H]1[C@@H]2[C@@H](O)C[C@@]2(C)[C@H]1CC[C@]2(O)C(=O)CO [Prednisolone] | 56.36
NC(=O)NO [Hydroxyurea] | 70.34
CC1(C)CCC(C)(C)c2cc(NC(=O)c3ccc(C(=O)O)cc3)ccc21 [Tamibarotene] | 94.85
N#Cc1ccccc1-c1cc(-c2ccccn2)cn(-c2ccccc2)c1=O [Perampanel] | 104.7
Cc1nc2c([nH]1)-c1ccccc1N(C(=O)c1ccc(NC(=O)c3ccccc3-c3ccccc3)cc1)CC2 [Conivaptan HCl] | 109
Cc1c(F)cc(C(=O)NC2CC2)cc1-c1ccc(C(=O)NCC(C)(C)C)cn1 [Losmapimod (GW856553X)] | 94.44
CCN(c1cc(-c2ccc(CN3CCOCC3)cc2)cc(C(=O)NCc2c(C)cc(C)[nH]c2=O)c1C)C1CCOCC1 [EPZ-6438] | 121.4
Cn1ncc(Cl)c1-c1cc(C(=O)N[C@H](CN)Cc2cccc(F)c2)sc1Cl [Afuresertib (GSK2110183)] | 13.68
CCN1CCN(c2cc3c(cc2F)c(=O)c(C(=O)O)cn3C2CC2)CC1 [Enrofloxacin] | 78.16
CCC(COC(=O)c1cc(OC)c(OC)c(OC)c1)(c1ccccc1)N(C)C (stereo not drawn) [Trimebutine] | 107.3

same assay, conditions: ht29 cells, 72 h, 10 µM

Compound | Relative cell viability (%) [%]
CCc1c(Cl)c(O)c(Cl)c(O)c1C(=O)O[C@H]1[C@H](O)[C@H](OC)[C@H](OC/C2=C\C=C\C[C@H](O)/C(C)=C/[C@H](CC)[C@@H](O[C@@H]3OC(C)(C)[C@@H](OC(=O)C(C)C)[C@H](O)[C@@H]3O)/C(C)=C/C(C)=C/C[C@@H]([C@@H](C)O)OC2=O)O[C@@H]1C [Fidaxomicin] | 94.85
